Paper PMC11062922 (Nature Chemical Biology, 2023)
Several values for one entry are separate records, joined by “and”; a condition that tells them apart may be missing. Equal entries are not always repeated. Where two headings read alike, the source gives them in different places.

Columns and labels:
PIP4K2C = molecular target: T1, PIP4K2C (Homo sapiens, UniProt Q8TBX8); experiment: Kinobeads competition binding, Lestaurtinib control replicates: PIP4K2C; conditions: read-out: Lestaurtinib Drugmatrix value; Gene Name PIP4K2C; one column per experiment number and replicate (R1-R3)
T1 construct: a mixture of lysates from five cancer cell lines; endogenous in cells
T1 sequence (Q8TBX8 1-421): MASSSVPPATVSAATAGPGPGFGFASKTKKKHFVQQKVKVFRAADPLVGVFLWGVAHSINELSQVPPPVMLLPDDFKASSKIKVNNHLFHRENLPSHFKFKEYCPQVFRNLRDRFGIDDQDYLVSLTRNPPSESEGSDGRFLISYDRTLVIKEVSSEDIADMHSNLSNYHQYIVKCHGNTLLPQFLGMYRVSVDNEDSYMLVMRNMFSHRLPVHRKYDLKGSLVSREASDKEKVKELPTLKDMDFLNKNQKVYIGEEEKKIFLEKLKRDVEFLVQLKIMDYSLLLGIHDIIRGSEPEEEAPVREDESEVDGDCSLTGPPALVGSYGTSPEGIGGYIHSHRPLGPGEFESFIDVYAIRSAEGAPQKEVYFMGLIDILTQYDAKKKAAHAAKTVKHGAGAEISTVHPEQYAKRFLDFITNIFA

PHKG2 = molecular target: T2, PHKG2 (Homo sapiens, UniProt P15735); experiment: Kinobeads competition binding, Lestaurtinib control replicates: PHKG2; conditions: read-out: Lestaurtinib Drugmatrix value; Gene Name PHKG2; one column per experiment number and replicate (R1-R3)
T2 construct: a mixture of lysates from five cancer cell lines; endogenous in cells
T2 sequence (P15735 1-406): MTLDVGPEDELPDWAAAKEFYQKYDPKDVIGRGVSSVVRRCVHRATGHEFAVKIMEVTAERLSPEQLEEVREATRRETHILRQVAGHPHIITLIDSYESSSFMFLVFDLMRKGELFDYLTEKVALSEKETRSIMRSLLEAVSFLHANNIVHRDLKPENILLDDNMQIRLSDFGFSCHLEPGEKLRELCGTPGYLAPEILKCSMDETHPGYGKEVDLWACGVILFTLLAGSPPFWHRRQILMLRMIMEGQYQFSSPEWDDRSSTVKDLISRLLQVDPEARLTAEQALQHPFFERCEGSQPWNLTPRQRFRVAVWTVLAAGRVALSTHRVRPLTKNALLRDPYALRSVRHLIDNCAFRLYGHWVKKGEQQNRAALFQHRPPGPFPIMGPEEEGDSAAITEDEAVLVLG

FLT4 = molecular target: T3, FLT4 (Homo sapiens, UniProt P35916); experiment: Kinobeads two-dose competition binding: FLT4; conditions: read-out: Lestaurtinib Drugmatrix value, Gene Name FLT4
T3 construct: endogenous in cells
T3 sequence (P35916 25-1363): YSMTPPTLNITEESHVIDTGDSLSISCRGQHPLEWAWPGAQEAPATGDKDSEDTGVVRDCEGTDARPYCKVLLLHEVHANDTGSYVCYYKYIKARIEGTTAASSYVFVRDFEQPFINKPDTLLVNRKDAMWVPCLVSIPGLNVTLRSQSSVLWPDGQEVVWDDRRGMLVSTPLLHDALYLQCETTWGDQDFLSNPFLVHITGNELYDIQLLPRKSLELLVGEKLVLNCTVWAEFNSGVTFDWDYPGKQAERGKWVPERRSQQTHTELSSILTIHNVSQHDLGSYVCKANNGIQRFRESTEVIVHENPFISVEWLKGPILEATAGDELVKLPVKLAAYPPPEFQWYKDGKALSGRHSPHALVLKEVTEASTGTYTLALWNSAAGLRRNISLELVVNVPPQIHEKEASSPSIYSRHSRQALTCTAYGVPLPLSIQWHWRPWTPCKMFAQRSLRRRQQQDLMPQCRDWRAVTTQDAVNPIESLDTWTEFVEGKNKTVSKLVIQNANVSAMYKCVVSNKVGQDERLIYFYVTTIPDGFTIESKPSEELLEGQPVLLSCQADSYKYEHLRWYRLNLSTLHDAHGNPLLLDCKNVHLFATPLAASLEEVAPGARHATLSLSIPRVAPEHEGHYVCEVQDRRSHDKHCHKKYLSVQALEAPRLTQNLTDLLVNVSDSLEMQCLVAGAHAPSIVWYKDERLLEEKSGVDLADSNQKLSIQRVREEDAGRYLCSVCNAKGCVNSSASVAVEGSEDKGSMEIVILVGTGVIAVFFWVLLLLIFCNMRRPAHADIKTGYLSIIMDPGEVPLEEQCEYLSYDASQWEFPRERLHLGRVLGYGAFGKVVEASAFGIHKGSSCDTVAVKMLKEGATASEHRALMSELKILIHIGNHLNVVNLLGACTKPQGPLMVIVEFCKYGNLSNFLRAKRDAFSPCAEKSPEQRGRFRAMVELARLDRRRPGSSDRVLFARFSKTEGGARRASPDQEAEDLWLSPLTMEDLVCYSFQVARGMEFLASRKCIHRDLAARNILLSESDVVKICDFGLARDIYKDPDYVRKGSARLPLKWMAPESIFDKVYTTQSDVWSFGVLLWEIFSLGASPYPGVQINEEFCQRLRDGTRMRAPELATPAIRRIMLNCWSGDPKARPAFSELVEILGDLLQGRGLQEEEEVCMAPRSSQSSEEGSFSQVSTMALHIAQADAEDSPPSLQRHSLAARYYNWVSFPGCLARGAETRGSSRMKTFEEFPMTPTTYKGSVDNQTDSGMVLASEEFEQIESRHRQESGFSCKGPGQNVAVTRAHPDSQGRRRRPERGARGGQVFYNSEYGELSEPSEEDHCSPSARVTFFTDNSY

PIM3 = molecular target: T4, PIM3 (Homo sapiens, UniProt Q86V86); experiment: Kinobeads competition binding, Lestaurtinib control replicates: PIM3
T4 construct: a mixture of lysates from five cancer cell lines; endogenous in cells

CSNK1D = molecular target: T5, CSNK1D (Homo sapiens, UniProt P48730); experiment: Kinobeads full dose-response competition binding: CSNK1D; conditions: Gene Name CSNK1D
T5 construct: endogenous in cells
T5 sequence (P48730 whole entry): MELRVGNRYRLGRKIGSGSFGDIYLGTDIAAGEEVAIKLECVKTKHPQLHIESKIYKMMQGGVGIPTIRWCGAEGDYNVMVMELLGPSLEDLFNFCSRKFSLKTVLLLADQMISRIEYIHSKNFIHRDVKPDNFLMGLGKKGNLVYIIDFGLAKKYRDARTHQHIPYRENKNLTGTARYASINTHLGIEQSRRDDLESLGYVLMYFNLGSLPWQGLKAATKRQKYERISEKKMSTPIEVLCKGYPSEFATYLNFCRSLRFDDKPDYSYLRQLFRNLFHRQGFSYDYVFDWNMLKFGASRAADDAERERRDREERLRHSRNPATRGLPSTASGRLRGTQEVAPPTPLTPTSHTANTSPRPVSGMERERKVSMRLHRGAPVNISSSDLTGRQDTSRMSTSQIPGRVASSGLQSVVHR

CSNK2A2 = CSNK2A2 (Homo sapiens, UniProt P19784); experiment: NanoBRET in-cell target engagement in HEK293T cells: CSNK2A2; type: cell-based; parameters: full-length PKN3, CSNK2A1 or CSNK2A2 ORF; host or cells: HEK293T
CSNK2A2, sequence (P19784 whole entry, the tested form may be a part): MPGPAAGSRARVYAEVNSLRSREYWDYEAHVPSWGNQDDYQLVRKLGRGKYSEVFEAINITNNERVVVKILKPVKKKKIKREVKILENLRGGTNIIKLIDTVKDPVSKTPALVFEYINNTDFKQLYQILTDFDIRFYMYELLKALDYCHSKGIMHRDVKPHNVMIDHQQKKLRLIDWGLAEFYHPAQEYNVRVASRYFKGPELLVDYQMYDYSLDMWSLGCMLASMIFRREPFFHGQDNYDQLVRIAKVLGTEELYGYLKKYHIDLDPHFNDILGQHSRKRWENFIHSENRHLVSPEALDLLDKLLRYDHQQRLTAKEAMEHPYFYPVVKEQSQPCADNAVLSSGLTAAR
Method: The NanoBRET assay was performed as described previously[28],[58]. In brief, full-length PKN3, CSNK2A1 or CSNK2A2 ORF (PKN3 vector was a kind gift of Promega, Vectors for […]: NV2981, NV1191) cloned in frame with a C-terminal NanoLuc-fusion, respectively, were transfected into HEK293T cells using FuGENE HD (Promega, E2312) and proteins were allowed to express for 20 h. Serially diluted inhibitor and NanoBRET Kinase Tracer K5 (Promega, N2530) at 500 nM (PKN3) or NanoBRET Kinase Tracer K10 (Promega, N2840) at 500 nM ([…]) were pipetted into 384-well plates using an Echo acoustic dispenser (Labcyte). The PKN3, CSNK2A1 or CSNK2A2 transfected cells were added at a density of 2 × 10^5 cells per ml after trypsinization and resuspending in Opti-MEM without phenol red (Life Technologies). The system was allowed to equilibrate for 2 h at 37 °C and 5% CO2 before BRET measurements. BRET signaling was measured by adding NanoBRET NanoGlo Substrate and Extracellular NanoLuc Inhibitor (Promega) according to the manufacturer’s protocol. Filtered luminescence was measured on a PHERAstar plate reader (BMG Labtech) equipped with a luminescence filter pair (450 nm BP filter (donor) and 610 LP filter (acceptor)). Competitive displacement data were then graphed using GraphPad Prism software (v.5.01) using a three-parameter curve fit with the following equation Y=bottom+(top−bottom)/1+10^logIC50−X×hillslope
Experiments were performed with at least two biological and two technical replicates.

[1] = molecular target: T6, endogenous kinases and other proteins enriched by Kinobeads from mixed lysates of K-562, COLO-205, MV-4-11, SK-N-BE(2) and OVCAR-8 (Homo sapiens, UniProt Q9Y6R4); experiment: Kinobeads competition binding profiling, two doses (100 nM and 1 µM); conditions: MAP3K4;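 further: inhibitor preincubated 45 min at 4 °C in cell lysate, then bead pulldown. Bound protein quantified by label-free mass spectrometry relative to DMSO vehicle control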
T6 construct: to maximize the representation of endogenous proteins; endogenous in cells

[2] = molecular target: T7, endogenous kinases and other proteins enriched by Kinobeads from mixed lysates of K-562, COLO-205, MV-4-11, SK-N-BE(2) and OVCAR-8 (Homo sapiens, UniProt P49760); experiment: as above; conditions: CLK2
T7 construct: endogenous in cells
T7 sequence (P49760 whole entry): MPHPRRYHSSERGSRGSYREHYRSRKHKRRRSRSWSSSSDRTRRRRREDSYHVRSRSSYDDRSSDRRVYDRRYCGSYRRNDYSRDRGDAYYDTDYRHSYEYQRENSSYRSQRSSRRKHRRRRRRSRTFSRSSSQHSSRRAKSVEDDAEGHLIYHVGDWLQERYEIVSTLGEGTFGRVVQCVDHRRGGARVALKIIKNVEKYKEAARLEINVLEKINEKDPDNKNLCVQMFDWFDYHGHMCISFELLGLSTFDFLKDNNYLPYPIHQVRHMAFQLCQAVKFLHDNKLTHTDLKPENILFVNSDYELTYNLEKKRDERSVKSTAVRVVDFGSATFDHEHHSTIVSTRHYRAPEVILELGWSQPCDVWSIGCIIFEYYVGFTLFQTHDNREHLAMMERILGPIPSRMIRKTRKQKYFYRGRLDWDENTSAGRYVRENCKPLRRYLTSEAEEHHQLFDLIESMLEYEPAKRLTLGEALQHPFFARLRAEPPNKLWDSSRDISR

[3] = molecular target: T8, endogenous kinases and other proteins enriched by Kinobeads from mixed lysates of K-562, COLO-205, MV-4-11, SK-N-BE(2) and OVCAR-8 (Homo sapiens, UniProt Q9H2G2); experiment: as above; conditions: SLK
T8 construct: endogenous in cells

[4] = molecular target: T9, endogenous kinases and other proteins enriched by Kinobeads from mixed lysates of K-562, COLO-205, MV-4-11, SK-N-BE(2) and OVCAR-8 (Homo sapiens, UniProt O14578); experiment: as above; conditions: CIT
T9 construct: to maximize the representation of endogenous proteins; endogenous in cells
T9 sequence (O14578 whole entry): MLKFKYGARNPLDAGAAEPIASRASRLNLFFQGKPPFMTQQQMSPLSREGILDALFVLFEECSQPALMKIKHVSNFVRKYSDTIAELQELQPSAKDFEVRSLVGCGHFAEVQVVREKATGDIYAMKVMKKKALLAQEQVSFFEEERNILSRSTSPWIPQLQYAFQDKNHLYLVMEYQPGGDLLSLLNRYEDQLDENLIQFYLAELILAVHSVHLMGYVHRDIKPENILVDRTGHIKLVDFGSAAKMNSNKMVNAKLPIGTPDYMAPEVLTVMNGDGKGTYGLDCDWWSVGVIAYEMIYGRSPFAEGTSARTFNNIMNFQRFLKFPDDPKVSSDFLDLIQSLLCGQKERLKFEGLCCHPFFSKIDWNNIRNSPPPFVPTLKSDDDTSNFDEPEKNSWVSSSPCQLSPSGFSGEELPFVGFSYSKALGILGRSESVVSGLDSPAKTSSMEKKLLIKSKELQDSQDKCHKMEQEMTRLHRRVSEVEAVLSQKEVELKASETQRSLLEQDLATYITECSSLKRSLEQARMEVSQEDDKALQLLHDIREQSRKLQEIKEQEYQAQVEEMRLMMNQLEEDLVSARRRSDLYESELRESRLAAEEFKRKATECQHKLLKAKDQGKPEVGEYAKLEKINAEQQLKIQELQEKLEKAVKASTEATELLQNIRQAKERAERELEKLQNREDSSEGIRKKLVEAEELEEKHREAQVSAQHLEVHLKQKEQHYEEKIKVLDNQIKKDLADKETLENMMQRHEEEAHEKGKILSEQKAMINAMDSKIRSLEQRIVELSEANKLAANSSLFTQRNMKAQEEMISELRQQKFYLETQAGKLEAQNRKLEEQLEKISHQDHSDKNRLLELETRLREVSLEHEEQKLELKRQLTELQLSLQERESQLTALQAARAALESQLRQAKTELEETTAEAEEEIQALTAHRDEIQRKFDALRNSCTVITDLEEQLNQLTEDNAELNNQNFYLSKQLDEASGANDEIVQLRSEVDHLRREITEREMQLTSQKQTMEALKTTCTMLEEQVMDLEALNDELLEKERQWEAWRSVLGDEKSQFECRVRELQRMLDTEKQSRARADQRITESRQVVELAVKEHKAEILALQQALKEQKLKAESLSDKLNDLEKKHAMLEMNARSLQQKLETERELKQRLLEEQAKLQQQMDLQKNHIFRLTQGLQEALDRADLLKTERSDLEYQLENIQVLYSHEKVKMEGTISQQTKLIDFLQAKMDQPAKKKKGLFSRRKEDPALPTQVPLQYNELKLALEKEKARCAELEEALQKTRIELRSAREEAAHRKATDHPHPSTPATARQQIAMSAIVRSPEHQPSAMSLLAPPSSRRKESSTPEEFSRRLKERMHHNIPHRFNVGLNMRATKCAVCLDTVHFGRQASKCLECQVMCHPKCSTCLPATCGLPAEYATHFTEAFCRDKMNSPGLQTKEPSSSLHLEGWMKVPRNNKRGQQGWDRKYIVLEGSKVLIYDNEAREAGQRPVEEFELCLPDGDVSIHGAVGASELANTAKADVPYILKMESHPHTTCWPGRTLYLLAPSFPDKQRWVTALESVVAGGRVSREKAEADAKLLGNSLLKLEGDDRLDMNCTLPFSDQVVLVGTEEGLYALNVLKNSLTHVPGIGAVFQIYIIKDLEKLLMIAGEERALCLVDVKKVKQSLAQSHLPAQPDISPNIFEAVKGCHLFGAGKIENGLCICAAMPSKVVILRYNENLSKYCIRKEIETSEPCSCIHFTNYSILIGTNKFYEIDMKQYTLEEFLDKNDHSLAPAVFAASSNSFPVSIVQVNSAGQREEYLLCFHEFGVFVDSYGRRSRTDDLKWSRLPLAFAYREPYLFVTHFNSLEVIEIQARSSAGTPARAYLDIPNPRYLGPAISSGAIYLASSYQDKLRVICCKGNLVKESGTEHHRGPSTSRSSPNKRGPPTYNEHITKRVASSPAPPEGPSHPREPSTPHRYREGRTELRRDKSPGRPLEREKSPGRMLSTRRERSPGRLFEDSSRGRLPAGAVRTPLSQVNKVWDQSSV

[5] = molecular target: T10, endogenous kinases and other proteins enriched by Kinobeads from mixed lysates of K-562, COLO-205, MV-4-11, SK-N-BE(2) and OVCAR-8 (Homo sapiens, UniProt Q08345); experiment: as above; conditions: DDR1
T10 construct: endogenous in cells

What does the source list for `C[C@]12O[C@H](C[C@]1(O)CO)n1c3ccccc3c3c4c(c5c6ccccc6n2c5c31)CNC4=O` [Lestaurtinib]?
potency estimated from few doses (PIP4K2C): 86.5 nM; potency estimated from few doses (PHKG2): 321 nM; potency estimated from few doses (FLT4): 396 nM; potency estimated from few doses (PIM3; read-out: Lestaurtinib Drugmatrix value, PIM3, Gene Name PIM3; one column per experiment number and replicate (R1-R3)): 611 nM; potency estimated from few doses (PIM3; read-out: Lestaurtinib Drugmatrix value, PIM3; Gene Name PIM3; one column per experiment number and replicate (R1-R3)): 656 nM and 795 nM

How did the “Relative Intensity 0.3nM” value (CSNK1D; 0.3nM compound, DMSO = 1) turn out when `NCc1ccc(-c2nc(-c3ccncc3)c(-c3ccc(Cl)c(O)c3)[nH]2)cc1` [SB-476429-A] was run?
Its value is 0.9053.

What about the “Relative Intensity 1nM” value (CSNK1D; 1nM compound, DMSO = 1) of the same compound?
The value was 1.1.

What about the “Relative Intensity 3nM” value (CSNK1D; 3nM compound, DMSO = 1) of the same compound?
Its value is 1.076.

And the “Relative Intensity 10nM” value (CSNK1D; 10nM compound, DMSO = 1)?
Its value is 1.106.

What about the “Relative Intensity 30nM” value (CSNK1D; 30nM compound, DMSO = 1) of the same compound?
The value was 0.9763.

And the “Relative Intensity 100nM” value (CSNK1D; 100nM compound, DMSO = 1)?
Its value is 0.9322.

What about the “Relative Intensity 300nM” value (CSNK1D; 300nM compound, DMSO = 1) of the same compound?
The value was 0.7176.

What about the “Relative Intensity 1000nM” value (CSNK1D; 1000nM compound, DMSO = 1) of the same compound?
The value was 0.4933.

What about the Kd (CSNK1D; EC50 with Correction, doses in nM, read-out: apparent Kd) of the same compound?
Its Kd is 300 nM.

And the EC50 (CSNK1D; eight-dose curve fit, doses in nM)?
Its EC50 is 300 nM.

For `COc1cc(Nc2ncc3c(C)nc(-c4cc5ccccc5[nH]4)n3n2)cc(OC)c1OC` [GW869516X], which IC50 (CSNK2A2; CSNK2A2, replicate 1, read-out: NanoBRET Rep1) is on record?
The IC50 was 135 nM.

And the IC50 (CSNK2A2; CSNK2A2, replicate 2, read-out: NanoBRET Rep2)?
Its IC50 is 503 nM.

What about the IC50 (CSNK2A2; HEK293T cells, in-cell target engagement, read-out: IC50 CSNK2A2 NanoBRET) of the same compound?
Its IC50 is 319 nM.

And the “Kinobeads Data” value [1]?
The value was “no target”.

What about the “Kinobeads Data” value [2] of the same compound?
Its value is “no target”.

What about the “Kinobeads Data” value [3] of the same compound?
The value was “no target”.

And the “Kinobeads Data” value [4]?
Its value is “no target”.

What about the “Kinobeads Data” value [5] of the same compound?
The value was “no target”.
